Structures are written as SMILES. Where only a bound is given, the exact number is not on record here.

In general, melting point refers to the temperature of the solid-liquid transition. Molecule `FC(F)(F)c1cccc(CSc2nnc(-c3ccc4[nH]ncc4c3)o2)c1` gave a melting point of 159 to 160 °C.

Take `CC(C)n1nc(C(=O)NCC2CCN(CC(=O)Nc3ccc(OCc4ccccc4)cc3)CC2)c2ccccc21`: the melting point lay in the range of 113 to 115 °C.

As for `CSc1ccc(/C=C/c2nc3ccccc3n2-c2ccccn2)cc1`, the melting point was 140 to 141 °C.

In turn, `CC1CC(=O)NN=C1c1ccc2c(c1)Oc1c[nH]nc1N2` (stereo not drawn) registered a melting point of 304 to 306 °C.

For `O=[N+]([O-])c1ccc2c(c1)C(c1ccccc1)=NCc1nc(CO)cn1-2`, the melting point lay in the range of 250 to 251 °C.

`COc1ccc(CC(C)CC(C(=O)C(CC(C)Cc2ccc(OC)c(OC)c2)N2C(=O)c3ccccc3C2=O)N2C(=O)c3ccccc3C2=O)cc1OC` (stereo not drawn) displayed a melting point of 128 °C.

The molecule `CN(C)C1CCc2oc3ccc(NC(=O)c4ccc(F)cc4)cc3c2C1` (stereo not drawn) showed a melting point of 137 to 138 °C.

Molecule `CNS(=O)(=O)c1sc(C)cc1CC(=O)O` came in with a melting point of 138 °C.

`CC(=O)OCCN(C)Cc1cc(C(=O)c2cccs2)cc(C(C)(C)C)c1O` registered a melting point of 124 to 126 °C.

For the molecule `CCCCCCCCN(CCCCCCCC)C(=O)CS(=O)(=O)Nc1c(C(C)C)cccc1C(C)C`, the melting point is 107 to 109 °C.

In the case of `Cc1ccc2c(c1)SC(c1ccc(OCCCCCBr)cc1)C(=O)N2C` (stereo not drawn), the melting point lay within 81 to 82 °C.

For `C[Si](C)(C)c1ccc2cc3c(cc2c1)C(=O)c1ccccc1C3=O`, the melting point was in the range of 168 to 170 °C.

In turn, `COc1ccc(Cn2c(S)nc3ccccc32)cc1` returned a melting point of 199 to 200 °C.

Molecule `CC1(C(=O)O)Cc2ccccc2NC1=O` (single isomer, unassigned; (+)) returned a melting point of 139 to 141 °C.

In the case of `O=C(c1cccs1)c1cnn2c(Cl)ccnc12`, the melting point lay in the range of 148 to 150 °C.

For `CC1COC(c2cnc(C3=NC(C)(C(C)C)C(=O)N3)c(C(=O)O)c2)O1` (stereo not drawn), the melting point is 50 to 62 °C.

For the molecule `COc1cc(CCCC2OC(=O)NC2=O)ccc1OCc1csc(CCc2ccccc2)n1` (stereo not drawn), the melting point fell in the range of 136 to 137 °C.

Take `COc1cc2c(cc1OC)CN(C(=O)Cc1ccc(OC)c([N+](=O)[O-])c1)CC2`: the melting point turned out to be 175 °C.

Consider `O=c1[nH]ncc2[nH]c(-c3ccc(OC(F)F)c(OC4CC4)c3)c(Cc3ccccc3F)c12`, for which the melting point lay in the range of 202 to 204 °C.

Molecule `OCCNc1ccnc2cc(C(F)(F)F)ccc12` displayed a melting point of 181 to 182 °C.

Molecule `CC(=O)c1cccc(NC(=O)c2ccc3c(c2)CC(CSCc2ccccc2)O3)c1O` (stereo not drawn) showed a melting point of 119 to 121 °C.

Turning to `COC(=O)CC(Cc1c[nH]c2ccccc12)(NC(=O)OC1C2CC3CC(C2)CC1C3)C(=O)O` (stereo not drawn), the melting point fell in the range of 108 to 109 °C.

Turning to `COC(=O)[C@@H](Cc1ccc(-c2ncnc3c2ncn3[C@@H]2CCCCO2)cc1)NC(=O)OC(C)(C)C`, the melting point lay in the range of 144 to 147 °C.

On to `COc1ccc(N2CCN(c3ccc(N)cc3)CC2)cn1`, for which the melting point is 111 °C.

Consider `CCOCc1nc2c(N)nc3cc(/C=C/C(=O)OC)ccc3c2n1CCCCN1CCCS1(=O)=O`, for which the melting point lay within 162 to 163 °C.

Turning to `CS(=O)(=O)Nc1ccc(N2CCN(c3cc([N+](=O)[O-])ccn3)CC2)cc1`, the melting point was in the range of 182 to 183 °C.

Molecule `COc1cn(-c2ccc(O)cc2F)nc(-c2ccnn2-c2ccccc2)c1=O` returned a melting point of 223 to 224 °C.

`Cn1nc2c(N)nc3ccccc3c2c1CC1(F)CCN(S(C)(=O)=O)CC1` registered a melting point of 283 to 285 °C.

`COc1cc(NC(=O)C(C#N)=CNc2ccsc2)c(Cl)cc1Cl`: the melting point was > 250 °C.

As for `COc1cc2cc(CO)c(CO)c(-c3ccnc(Nc4ccccc4CCCO)c3)c2cc1OC`, the melting point was 156 to 158 °C.

Molecule `CCC(=O)Nc1nc(-c2cc(C)cc(C)c2)c(-c2ccncc2)s1` registered a melting point of 291 to 293 °C.

In turn, `CCOC(=O)c1ccc2c(c1)sc1ccccc12` had a melting point of 74 to 78 °C.

Turning to `CCOC(=O)CC[C@H](NC(=O)c1ccc(NS(=O)(=O)c2cc3c(cc2Br)CCc2nc(N)[nH]c(=O)c2-3)cc1)C(=O)OCC`, the melting point is 175 °C.

For the origin of these results see a melting point compilation (Tetko et al.; mined from patent text by program, amines drawn as free bases though some values may be those of a salt).
